Laboratory results: patent publication US6380243B1, “Aminopyridine-containing thiourea inhibitors of herpes viruses” (American Home Products Corporation, priority 1998, dated 2002)
In brackets after ≈: the same amount, converted by molar mass.

Columns and labels:
HCMV wild-type = test: HCMV yield assay; type: cell-based, human cytomegalovirus; conditions: Human betaherpesvirus 5, Fibroblast; human foreskin fibroblasts; reduction of virus yield by 50%; read-out: IC50 (ug/ml) HCMV
Method: Yield assay. Monolayer cultures of human foreskin fibroblasts are infected with HCMV wild-type, typically at a multiplicity of infection equal to 0.2, in the presence of inhibitor compound (varying concentrations). At three days post-infection, total virus produced in these cultures (i.e. virus yield) is assessed by harvesting and titering the virus in 12-well plates of cultured human foreskin fibroblasts (done in the absence of inhibitor). Plaques are quantified at 2 weeks post-infection. An inhibitor of HCMV is identified by the reduction in titer of virus yield in the presence, compared to the titer in the absence of compound. In this assay, the relative anti-HCMV activity of an inhibitor is typically determined by calculating the IC50 or IC90 value, that is, the amount of compound required to reduce the virus yield by 50% or 90%, respectively. Table I describes IC50 data for compounds tested against HCMV.

HSV-1 = test: HSV Antiviral (ELISA) Assay; type: cell-based, herpes simplex virus type 1; conditions: Human alphaherpesvirus 1, Vero cells, HSV-1, about 24 hours post-infection, read-out: IC50 (ug/ml) HSV
Method: Vero cells (ATCC #CCL-81) are plated on 96-well tissue culture plates at 3.5×10^4 cells per 100 μl tissue culture DMEM (Dulbecco's modified Eagle media) supplemented with 2% fetal bovine serum (FBS) in each well. After overnight incubation @37° C. (in 5% CO2) and 30 minutes prior to infection with HSV-1 (multiplicity of infection equal to 0.006), cells are either untreated, or treated with test compound (multiple concentrations) or reference standard drug control. After approximately 24 hours post-infection incubation @37° C. (in 5% CO2), cells are fixed for ELISA assay. The primary antibody is murine anti-HSV glycoprotein D monoclonal primary antibody and the secondary antibody is goat anti-mouse IgG linked to β-galactosidase. Thus the extent of viral replication is determined by assessing β-galactosidase activity by quantifying the generation of the 4-methyl umbelliferone fluorescent cleavage product after addition of the methyl umbelliferyl-β-D-galactoside (Sigma #M1633) substrate on a microfluorimeter (365 nm for excitation and 450 nm for emission). Antiviral activity (IC50) of the test compound is determined by comparing the flourescence obtained in absence of compound to that obtained in the presence of compound.

VZV strain Ellen = test: VZV Antiviral (ELISA) Assay; type: cell-based, varicella-zoster virus; conditions: Human alphaherpesvirus 3, 72 h; for IC50: human foreskin fibroblast cells, three days, read-out: IC50 (ug/ml) VZV; for inhibition at 10 µg/mL: read-out: % inhibition 10 ug/ml VZV, 10 ug/ml, human foreskin fibroblast cells, three days
Method: For the generation of stock VZV to be used in the assay, VZV strain Ellen (ATCC #VR-1367) is used to infect human foreskin fibroblast (HFF) cells at low multiplicity (less than 0.1) and incubated overnight at 37° C. in 5% CO2. After the overnight incubation, the mixture of uninfected and VZV-infected HFF infected cells are then harvested and added to each well of 96-well plates (3.5×10^4 cells in 100 1μl DMEM supplemented with 2% FBS) which contain test compound or the reference standard drug control (in 100 μl DMEM supplemented with 2% FBS per well). These cells are incubated for three days at 37° C. in 5% CO2, then fixed for ELISA assay. The primary antibody is murine anti-VZV glycoprotein II monoclonal antibody (Applied Biosystems, Inc. #13-145-100) and the secondary antibody is goat anti-mouse IgG linked to β-galactosidase. Thus the extent of viral replication is determined by assessing β-galactosidase activity by quantifying the generation of the 4-methyl umbelliferone fluorescent cleavage product after addition of the methyl umbelliferyl-β-D-galactoside (Sigma #M1633) substrate on a microfluorimeter (365 nm for excitation 450 nm for emission). Antiviral activity (IC50) of the test compound is determined by comparing the flourescence obtained in absence of compound to that obtained the presence of compound.

SMILES | IC50 (HCMV wild-type) | IC50 (HSV-1) | IC50 (VZV strain Ellen) | inhibition at 10 µg/mL (VZV strain Ellen)
O=C(Nc1ccc(NC(=S)Nc2ccccn2)cc1)c1ccco1 [Example 426, Furan-2-carboxylic acid [4-(3-pyridin-2-yl-thioureido)-phenyl]-amide] | 1.6 µg/mL (≈ 4.73 µM) | > 10 µg/mL | 1.8 µg/mL (≈ 5.32 µM) | 2%
O=C(Nc1ccc(NC(=S)Nc2ccncc2)cc1)c1ccco1 [Example 427, Furan-2-carboxylic acid [4-(3-pyridin-4-yl-thioureido)-phenyl]-amide] | 0.8 µg/mL (≈ 2.36 µM) | > 10 µg/mL | 1.2 µg/mL (≈ 3.55 µM) | 21%
O=C(Nc1ccc(NC(=S)Nc2cccnc2)cc1)c1ccccc1F [Example 428, 2-Fluoro-N-[4-(3-pyridin-3-yl-thioureido)-phenyl]-benzamide] | > 10 µg/mL | > 10 µg/mL | > 10 µg/mL | 0%
O=C(Nc1ccc(NC(=S)Nc2cccnc2)cc1)c1ccco1 [Example 429, Furan-2-carboxylic acid [4-(3-pyridin-3-yl-thioureido)-phenyl]-amide] | 1 µg/mL (≈ 2.96 µM) | > 10 µg/mL | > 10 µg/mL | 0%
O=C(Nc1ccc(NC(=S)Nc2ccccn2)cc1)c1ccccc1F [Example 443, 2-Fluoro-N-[4-(3-pyridin-2-yl-thioureido)-phenyl]-benzamide] | > 10 µg/mL | > 10 µg/mL | > 10 µg/mL | 0%
O=C(Nc1ccc(NC(=S)Nc2ccncc2)cc1)c1ccccc1F [Example 444, 2-Fluoro-N-[4-(3-pyridin-4-yl-thioureido)-phenyl]-benzamide] | 4 µg/mL (≈ 10.9 µM) | 8 µg/mL (≈ 21.8 µM) | > 10 µg/mL | 0%
O=C(Nc1ccc(NC(=S)Nc2ccc(Cl)nc2)cc1)c1csnn1 [Example 471, [1,2,3]Thiadiazole-4-carboxylic acid {4-[3-(6-chloro-pyridin-3-yl)-thioureido]-phenyl}-amide] | 0.03 µg/mL (≈ 0.0767 µM) | > 10 µg/mL | > 10 µg/mL | 27%
O=C(Nc1ccc(NC(=S)Nc2ccncn2)cc1)c1ccco1 [Example 480, Furan-2-carboxylic acid [4-(3-pyrimidin-4-yl-thioureido)-phenyl]-amide] | 7 µg/mL (≈ 20.6 µM) | > 10 µg/mL | > 10 µg/mL | 42%
O=C(Nc1ccc(NC(=S)Nc2ccc3[nH]ncc3c2)cc1)c1ccccc1F [Example 483, 2-Fluoro-N-{4-[3-(1H-indazol-5-yl)-thioureido]-phenyl}-benzamide] | 5 µg/mL (≈ 12.3 µM) | 1.2 µg/mL (≈ 2.96 µM) | > 10 µg/mL | 45%
O=C(Nc1ccc(NC(=S)Nc2cncc(Br)c2)cc1)c1csnn1 [Example 525, [1,2,3]Thiadiazole-4-carboxylic acid {4-[3-(5-bromo-pyridin-3-yl)-thioureido]-phenyl}-amide] | 0.018 µg/mL (≈ 0.0413 µM) | 2.5 µg/mL (≈ 5.74 µM) | > 10 µg/mL | 39%
CC(C)(C)n1ccnc1NC(=S)Nc1ccc(NC(=O)c2ccccc2F)cc1 [Example 593, N-{4-[3-(1-tert-Butyl-1H-imidazol-2-yl)-thioureido]-phenyl}-2-fluoro-benzamide] | > 0.5 µg/mL | 10 µg/mL (≈ 24.3 µM) | > 10 µg/mL | 
CC(C)(C)n1ccnc1NC(=S)Nc1ccc(NC(=O)c2csnn2)cc1 [Example 608, [1,2,3]Thiadiazole-4-carboxylic acid {4-[3-(1-tert-butyl-1H-imidazol-2-yl)-thioureido]-phenyl}-amide] | > 0.5 µg/mL | 9 µg/mL (≈ 22.4 µM) | > 10 µg/mL | 
CC(C)(C)n1ccnc1NC(=S)Nc1ccc(NC(=O)c2ccco2)cc1 [Example 609, Furan-2-carboxylic acid {4-[3-(1-tert-butyl-1H-imidazol-2-yl)-thioureido]-phenyl}-amide] | 1.5 µg/mL (≈ 3.91 µM) | 8 µg/mL (≈ 20.9 µM) | > 10 µg/mL | 
O=C(Nc1ccc(NC(=S)Nc2cncc(C(F)(F)F)c2)cc1)c1csnn1 [Example 629, [1,2,3]Thiadiazole-4-carboxylic acid {4-[3-(5-trifluoromethyl-pyridin-3-yl)-thioureido]-phenyl}-amide] | 0.5 µg/mL (≈ 1.18 µM) | > 10 µg/mL | > 10 µg/mL | 
O=C(Nc1ccc(NC(=S)NCc2cccnc2)cc1)c1ccccc1F [Example 632, 2-Fluoro-N-[4-(3-pyridin-3-ylmethyl-thioureido)-phenyl]-benzamide] | > 10 µg/mL | > 10 µg/mL | > 10 µg/mL | 
O=C(Nc1ccc(NC(=S)NCc2cccnc2)cc1)c1ccco1 [Example 633, Furan-2-carboxylic acid [4-(3-pyridin-3-ylmethyl-thioureido)-phenyl]-amide] | 0.34 µg/mL (≈ 0.965 µM) | > 10 µg/mL | > 10 µg/mL | 
O=C(Nc1ccc(NC(=S)NCc2cccnc2)cc1)c1csnn1 [Example 634, [1,2,3]Thiadiazole-4-carboxylic acid [4-(3-pyridin-3-ylmethyl-thioureido)-phenyl]-amide] | 0.12 µg/mL (≈ 0.324 µM) | > 10 µg/mL | > 10 µg/mL | 
O=C(Nc1ccc(NC(=S)NC2CCc3ccccc32)cc1)c1csnn1 (stereo not shown) [Example 649, [1,2,3]Thiadiazole-4-carboxylic acid [4-(3-indan-1-yl-thioureido)-phenyl]-amide] | 0.02 µg/mL (≈ 0.0506 µM) | > 10 µg/mL | 0.5 µg/mL (≈ 1.26 µM) | 
O=C(Nc1ccc(NC(=S)NCc2ccncc2)cc1)c1ccccc1F [Example 658, 2-Fluoro-N-[4-(3-pyridin-4-ylmethyl-thioureido)-phenyl]-benzamide] | > 0.5 µg/mL | 10 µg/mL (≈ 26.3 µM) |  | 
O=C(Nc1ccc(NC(=S)NCc2ccncc2)cc1)c1ccco1 [Example 659, Furan-2-carboxylic acid [4-(3-pyridin-4-ylmethyl-thioureido)-phenyl]-amide] | > 0.5 µg/mL | > 10 µg/mL |  | 
O=C(Nc1ccc(NC(=S)NCc2ccncc2)cc1)c1csnn1 [Example 660, [1,2,3]Thiadiazole-4-carboxylic acid [4-(3-pyridin-4-ylmethyl-thioureido)-phenyl]-amide] | > 0.5 µg/mL | 10 µg/mL (≈ 27 µM) |  | 
CC(NC(=S)Nc1ccc(NC(=O)c2ccccc2F)cc1)c1ccco1 (stereo not shown) [Example 802, 2-Fluoro-N-{4-[3-(1-furan-2-yl-ethyl)-thioureido]-phenyl}-benzamide] | > 10 µg/mL | > 10 µg/mL | 7.3 µg/mL (≈ 19 µM) | 
CC(NC(=S)Nc1ccc(NC(=O)c2ccccc2F)cc1)c1ccncc1 (stereo not shown) [Example 803, 2-Fluoro-N-{4-[3-(1-pyridin-4-yl-ethyl)-thioureido]-phenyl}-benzamide] | > 10 µg/mL | > 10 µg/mL | > 7.5 µg/mL | 
CC(NC(=S)Nc1ccc(NC(=O)c2ccccc2F)cc1)c1cccn1C (stereo not shown) [Example 804, 2-Fluoro-N-(4-{3-[1-(1-methyl-1H-pyrrol-2-yl)-ethyl]-thioureido}-phenyl)-benzamide] | > 10 µg/mL | > 10 µg/mL | 5.7 µg/mL (≈ 14.4 µM) | 
CC(NC(=S)Nc1ccc(NC(=O)c2ccccc2F)cc1)c1ccsc1 (stereo not shown) [Example 805, 2-Fluoro-N-{4-[3-(1-thiophen-3-yl-ethyl)-thioureido]-phenyl}-benzamide] | 8 µg/mL (≈ 20 µM) | > 10 µg/mL | 1.6 µg/mL (≈ 4 µM) | 
CC(NC(=S)Nc1ccc(NC(=O)c2ccccc2F)cc1)c1nccs1 (stereo not shown) [Example 1093, 2-Fluoro-N-{4-[3-(1-thiazol-2-yl-ethyl)-thioureido]-phenyl}-benzamide] | > 10 µg/mL | > 10 µg/mL | > 10 µg/mL | 
